Source: patent US10385048B2, “Pesticidally active polycyclic derivatives with sulfur containing substituents” (Syngenta Participations AG, priority 2014, dated 2019)

Assays:
Format in all cases: in vivo
[1] = system: Diabrotica Balteata; experiment: Diabrotica balteata (corn root worm), maize sprouts, L2 larvae; conditions: 96 h, application rate 200 ppm, 4 days after infestation, read-out: effect in at least one of the two categories (mortality or growth inhibition)
Protocol: Example B2: Diabrotica Balteata (Corn Root Worm)
Maize sprouts placed onto an agar layer in 24-well microtiter plates were treated with aqueous test solutions prepared from 10′000 ppm DMSO stock solutions by spraying. After drying, the plates were infested with L2 larvae (6 to 10 per well). The samples were assessed for mortality and growth inhibition in comparison to untreated samples 4 days after infestation.

[2] = system: Euschistus heros; experiment: Euschistus heros (neotropical brown stink bug), soybean leaves, N2 nymphs; conditions: 120 h, application rate 200 ppm, 5 days after infestation, read-out: effect in at least one of the two categories (mortality or growth inhibition)
Protocol: Example B3: Euschistus heros (Neotropical Brown Stink Bug)
Soybean leaves on agar in 24-well microtiter plates were sprayed with aqueous test solutions prepared from 10′000 ppm DMSO stock solutions. After drying the leaves were infested with N2 nymphs. The samples were assessed for mortality and growth inhibition in comparison to untreated samples 5 days after infestation.

[3] = system: Myzus persicae; experiment: Myzus persicae (green peach aphid) feeding/contact activity, sunflower leaf discs; conditions: foliar, 144 h, application rate 200 ppm, 6 days after infestation
Protocol: Example B5: Myzus persicae (Green Peach Aphid): Feeding/Contact Activity
(§1) Sunflower leaf discs were placed onto agar in a 24-well microtiter plate and sprayed with aqueous test solutions prepared from 10′000 ppm DMSO stock solutions. After drying, the leaf discs were infested with an aphid population of mixed ages. The samples were assessed for mortality 6 days after infestation.

[4] = system: Plutella xylostella; experiment: Plutella xylostella (diamond back moth), artificial diet, L2 larvae; conditions: 120 h, application rate 200 ppm, 5 days after infestation, read-out: effect in at least one of the two categories (mortality or growth inhibition)
Protocol: Example B7: Plutella xylostella (Diamond Back Moth)
24-well microtiter plates with artificial diet were treated with aqueous test solutions prepared from 10′000 ppm DMSO stock solutions by pipetting. After drying, the plates were infested with L2 larvae (10 to 15 per well). The samples were assessed for mortality and growth inhibition in comparison to untreated samples 5 days after infestation.

[5] = system: Spodoptera littoralis; experiment: Spodoptera littoralis (Egyptian cotton leaf worm), cotton leaf discs, L1 larvae; conditions: foliar, 72 h, application rate 200 ppm, L1 larvae on cotton leaf discs, 3 days after infestation
Protocol: Example B8: Spodoptera littoralis (Egyptian Cotton Leaf Worm)
Cotton leaf discs were placed onto agar in 24-well microtiter plates and sprayed with aqueous test solutions prepared from 10′000 ppm DMSO stock solutions. After drying the leaf discs were infested with five L1 larvae. The samples were assessed for mortality, anti-feeding effect, and growth inhibition in comparison to untreated samples 3 days after infestation. Control of Spodoptera littoralis by a test sample is given when at least one of the categories mortality, anti-feedant effect, and growth inhibition is higher than the untreated sample.

[6] = system: Spodoptera littoralis; experiment: Spodoptera littoralis (Egyptian cotton leaf worm), uptake by lettuce roots from agar, eggs; conditions: 144 h, test rate 12.5 ppm, lettuce root uptake, 6 days after infestation, read-out: effect in at least one of the three categories (mortality, anti-feeding, or growth inhibition)
Source text: Example B9: Spodoptera littoralis (Egyptian Cotton Leaf Worm)
Test compounds were applied by pipette from 10′000 ppm DMSO stock solutions into 24-well plates and mixed with agar. Lettuce seeds were placed onto the agar and the multi well plate was closed by another plate which contained also agar. After 7 days the compound was absorbed by the roots and the lettuce grew into the lid plate. The lettuce leaves were then cut off into the lid plate. Spodoptera eggs were pipetted through a plastic stencil onto a humid gel blotting paper and the lid plate was closed with it. The samples were assessed for mortality, anti-feedant effect and growth inhibition in comparison to untreated samples 6 days after infestation.

[7] = system: Bemisia tabaci; experiment: Bemisia tabaci (cotton white fly) feeding/contact activity, cotton leaf discs; conditions: foliar, 144 h, application rate 200 ppm, adult white flies, 6 days after incubation
Protocol: Example B1: Bemisia tabaci (Cotton White Fly): Feeding/Contact Activity
Cotton leaf discs were placed on agar in 24-well microtiter plates and sprayed with aqueous test solutions prepared from 10′000 ppm DMSO stock solutions. After drying the leaf discs were infested with adult white flies. The samples were checked for mortality 6 days after incubation.

[8] = system: Thrips tabaci; experiment: Thrips tabaci (onion thrips) feeding/contact activity, sunflower leaf discs; conditions: foliar, 144 h, application rate 200 ppm, population of mixed ages, 6 days after infestation
Protocol: Example B11: Thrips tabaci (Onion Thrips) Feeding/Contact Activity
as §1, with “on” for “onto”, “in” for “in a”, “plates” for “plate”, “drying” for “drying,”, “a thrips” for “an aphid”

[9] = system: Aedes aegypti; experiment: Aedes aegypti (yellow fever mosquito), dry deposit in 12 well plates, adult females; conditions: application rate 200 ppm in ethanol, after 48 h and/or 24 h
Protocol: Example B12: Aedes aegypti (Yellow Fever Mosquito)
(§2) Test solutions, at an application rate of 200 ppm in ethanol, were applied to 12 well tissue culture plates. Once the deposits were dry, five, two to five day old adult female Aedes aegypti were added to each well, and sustained with a 10% sucrose solution in a cotton wool plug. Assessment of knockdown was made one hour after introduction, and mortality was assessed at 24 and 48 hours after introduction.

[10] = system: Anopheles stephensi; experiment: Anopheles stephensi (Indian malaria mosquito), dry deposit in 12 well plates, adult females; conditions: application rate 200 ppm in ethanol, after 48 h and/or 24 h
Protocol: Example B13: Anopheles stephensi (Indian Malaria Mosquito)
as §2, with “Anopheles stephensi” for “Aedes aegypti”

[11] = system: Frankliniella occidentalis; experiment: Frankliniella occidentalis (western flower thrips) feeding/contact activity, sunflower leaf discs; conditions: foliar, 168 h, application rate 200 ppm, population of mixed ages, 7 days after infestation
Protocol: Example B4: Frankliniella occidentalis (Western Flower Thrips): Feeding/Contact Activity
Sunflower leaf discs were placed on agar in 24-well microtiter plates and sprayed with aqueous test solutions prepared from […] stock solutions. After drying the leaf discs were infested with a Frankliniella population of mixed ages. The samples were assessed for mortality 7 days after infestation.

[12] = system: Myzus persicae; experiment: Myzus persicae (green peach aphid) systemic activity, pea seedling roots; conditions: 144 h, test rate 24 ppm, 6 days after placing seedlings into test solutions

CCS(=O)(=O)c1cc(C(F)(F)F)cnc1-c1nc2cc(OCC(F)F)ncc2n1C [Compound P3]
≥ 80%: percent effect (mortality or growth inhibition) at 200 ppm [1] | percent effect (mortality or growth inhibition) at 200 ppm [2] | mortality at 200 ppm [3] | percent effect (mortality or growth inhibition) at 200 ppm [4] | percent control (mortality, anti-feedant effect or growth inhibition) at 200 ppm [5] | percent effect (mortality, anti-feeding or growth inhibition) at 12.5 ppm [6]

CCSc1cc2nc(-c3ncc(C(F)(F)F)cc3SCC)n(C)c2cn1 [Compound P1]
≥ 80%: percent effect (mortality or growth inhibition) at 200 ppm [1] | percent effect (mortality or growth inhibition) at 200 ppm [2] | percent effect (mortality or growth inhibition) at 200 ppm [4]

CCS(=O)(=O)c1cc(C(F)(F)F)cnc1-c1nc2cc(OC(F)(F)Br)ncc2n1C [Compound P5, 6-[bromo(difluoro)methoxy]-2-[3-ethylsulfonyl-5-(trifluoromethyl)-2-pyridyl]-3-methyl-imidazo[4,5-c]pyridine]
≥ 80%: mortality at 200 ppm [7] | percent effect (mortality or growth inhibition) at 200 ppm [1] | percent effect (mortality or growth inhibition) at 200 ppm [2] | mortality at 200 ppm [3] | percent control (mortality, anti-feedant effect or growth inhibition) at 200 ppm [5] | percent effect (mortality, anti-feeding or growth inhibition) at 12.5 ppm [6] | mortality at 200 ppm [8] | pest or weed control at 200 ppm [9] | pest or weed control at 200 ppm [10]

CCSc1cc(C(F)(F)F)cnc1-c1nc2cc(SC(F)(F)F)ncc2n1C [Compound P11, 2-[3-Ethylsulfanyl-5-(trifluoromethyl)-2-pyridyl]-3-methyl-6-(trifluoromethylsulfanyl)imidazo[4,5-c]pyridine]
≥ 80%: percent effect (mortality or growth inhibition) at 200 ppm [1] | percent effect (mortality or growth inhibition) at 200 ppm [2] | mortality at 200 ppm [3] | percent effect (mortality or growth inhibition) at 200 ppm [4] | percent control (mortality, anti-feedant effect or growth inhibition) at 200 ppm [5] | pest or weed control at 200 ppm [9] | pest or weed control at 200 ppm [10]

CCS(=O)(=O)c1cc(C(F)(F)F)cnc1-c1nc2cc(OC(F)F)ncc2n1C [Compound P6, 6-(difluoromethoxy)-2-[3-ethylsulfonyl-5-(trifluoromethyl)-2-pyridyl]-3-methyl-imidazo[4,5-c]pyridine]
≥ 80%: mortality at 200 ppm [7] | percent effect (mortality or growth inhibition) at 200 ppm [1] | mortality at 200 ppm [3] | percent effect (mortality or growth inhibition) at 200 ppm [4] | percent control (mortality, anti-feedant effect or growth inhibition) at 200 ppm [5] | mortality at 200 ppm [8]

CCS(=O)(=O)c1cc(C(F)(F)F)cnc1-c1nc2cc(SC(F)(F)F)ncc2n1C [Compound P10, 2-[3-ethylsulfonyl-5-(trifluoromethyl)-2-pyridyl]-3-methyl-6-(trifluoromethylsulfanyl)imidazo[4,5-c]pyridine]
≥ 80%: mortality at 200 ppm [7] | percent effect (mortality or growth inhibition) at 200 ppm [1] | percent effect (mortality or growth inhibition) at 200 ppm [2] | mortality at 200 ppm [11] | mortality at 200 ppm [3] | mortality at 24 ppm [12] | percent effect (mortality or growth inhibition) at 200 ppm [4] | percent control (mortality, anti-feedant effect or growth inhibition) at 200 ppm [5] | percent effect (mortality, anti-feeding or growth inhibition) at 12.5 ppm [6] | mortality at 200 ppm [8] | pest or weed control at 200 ppm [9] | pest or weed control at 200 ppm [10]

CCS(=O)(=O)c1cc(C(F)(F)F)cnc1-c1nc2cc(OC)ncc2n1C [Compound P2]
≥ 80%: mortality at 24 ppm [12]

CCS(=O)(=O)c1cc(C(F)(F)F)cnc1-c1nc2cc(OCC(F)(F)F)ncc2n1C [Compound P14]
≥ 80%: percent effect (mortality or growth inhibition) at 200 ppm [2] | mortality at 200 ppm [3] | mortality at 24 ppm [12]

CCS(=O)(=O)c1cc(Br)cnc1-c1nc2cc(SC(F)(F)F)ncc2n1C [Compound P16]
≥ 80%: mortality at 200 ppm [7] | percent effect (mortality or growth inhibition) at 200 ppm [1] | percent effect (mortality or growth inhibition) at 200 ppm [2] | mortality at 200 ppm [3] | percent effect (mortality or growth inhibition) at 200 ppm [4] | percent control (mortality, anti-feedant effect or growth inhibition) at 200 ppm [5] | percent effect (mortality, anti-feeding or growth inhibition) at 12.5 ppm [6] | mortality at 200 ppm [8] | pest or weed control at 200 ppm [9] | pest or weed control at 200 ppm [10]

CCS(=O)(=O)c1cc(C(F)(F)F)cnc1-c1nc2cc(SCC(F)(F)F)ncc2n1C [Compound P17, 2-[3-Ethylsulfonyl-5-(trifluoromethyl)-2-pyridyl]-3-methyl-6-(2,2,2-trifluoroethylsulfanyl) imidazo[4,5-c]pyridine]
≥ 80%: percent effect (mortality or growth inhibition) at 200 ppm [1] | mortality at 200 ppm [3]

CCSc1cc(C(F)(F)F)cnc1-c1nc2cc(OC(F)F)ncc2n1C [Compound P13, 6-(difluoromethoxy)-2-[3-ethylsulfanyl-5-(trifluoromethyl)-2-pyridyl]-3-methyl-imidazo[4,5-c]pyridine]
≥ 80%: mortality at 200 ppm [7] | percent effect (mortality or growth inhibition) at 200 ppm [1] | percent effect (mortality or growth inhibition) at 200 ppm [2] | mortality at 200 ppm [3] | percent effect (mortality or growth inhibition) at 200 ppm [4] | pest or weed control at 200 ppm [9] | pest or weed control at 200 ppm [10]

CCSc1cc(C(F)(F)F)cnc1-c1nc2cc(OC(F)F)ncc2n1C [Compound P7]
≥ 80%: percent control (mortality, anti-feedant effect or growth inhibition) at 200 ppm [5]

CCS(=O)(=O)c1cc(C(F)(F)F)cnc1-c1nc2cc([S+]([O-])CC(F)(F)F)ncc2n1C (stereo not drawn) [Compound P15, 2-[3-Ethylsulfonyl-5-(trifluoromethyl)-2-pyridyl]-3-methyl-6-(2,2,2-trifluoroethylsulfinyl)imidazo[4,5-c]pyridine]
≥ 80%: mortality at 200 ppm [7] | percent effect (mortality or growth inhibition) at 200 ppm [1] | percent effect (mortality or growth inhibition) at 200 ppm [2] | mortality at 200 ppm [3] | mortality at 24 ppm [12] | percent effect (mortality or growth inhibition) at 200 ppm [4] | percent control (mortality, anti-feedant effect or growth inhibition) at 200 ppm [5] | percent effect (mortality, anti-feeding or growth inhibition) at 12.5 ppm [6] | mortality at 200 ppm [8] | pest or weed control at 200 ppm [9] | pest or weed control at 200 ppm [10]
